Results taken from ChEMBL document CHEMBL4507268 (2021).

Tests used:
[1] = molecular target: D(2) dopamine receptor (Homo sapiens) (UniProt P14416); conditions: Compound concentration 10.0 uM
[2] = organism: Rattus norvegicus; conditions: Compound concentration 10.0 uM
[3] = molecular target: Death-associated protein kinase 2 (Homo sapiens) (UniProt Q9UIK4); conditions: Compound concentration 1.0 uM
[4] = molecular target: T1, Tyrosine-protein kinase ZAP-70 (Homo sapiens) (UniProt P43403); conditions: Compound concentration 1.0 uM
T1 sequence (whole entry): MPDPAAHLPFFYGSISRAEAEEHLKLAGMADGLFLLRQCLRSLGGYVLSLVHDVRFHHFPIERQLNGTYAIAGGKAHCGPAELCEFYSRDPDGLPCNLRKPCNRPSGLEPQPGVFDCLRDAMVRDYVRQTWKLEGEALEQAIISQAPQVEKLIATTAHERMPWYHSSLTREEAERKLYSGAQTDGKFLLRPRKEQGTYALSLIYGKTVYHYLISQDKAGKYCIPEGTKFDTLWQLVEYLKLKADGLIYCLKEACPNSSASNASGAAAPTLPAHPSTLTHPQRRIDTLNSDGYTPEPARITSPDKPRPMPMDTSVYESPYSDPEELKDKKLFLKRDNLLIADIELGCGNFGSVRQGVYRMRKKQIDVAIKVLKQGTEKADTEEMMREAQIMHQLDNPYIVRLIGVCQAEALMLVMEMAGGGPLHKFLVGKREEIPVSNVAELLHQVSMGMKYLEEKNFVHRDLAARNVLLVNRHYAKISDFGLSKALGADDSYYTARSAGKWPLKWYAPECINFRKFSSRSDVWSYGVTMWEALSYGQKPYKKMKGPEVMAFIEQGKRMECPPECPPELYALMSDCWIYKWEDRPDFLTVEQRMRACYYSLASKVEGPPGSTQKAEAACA

[5] = molecular target: T2, Ephrin type-B receptor 4 (Homo sapiens) (UniProt P54760); conditions: Compound concentration 1.0 uM
T2 sequence (whole entry): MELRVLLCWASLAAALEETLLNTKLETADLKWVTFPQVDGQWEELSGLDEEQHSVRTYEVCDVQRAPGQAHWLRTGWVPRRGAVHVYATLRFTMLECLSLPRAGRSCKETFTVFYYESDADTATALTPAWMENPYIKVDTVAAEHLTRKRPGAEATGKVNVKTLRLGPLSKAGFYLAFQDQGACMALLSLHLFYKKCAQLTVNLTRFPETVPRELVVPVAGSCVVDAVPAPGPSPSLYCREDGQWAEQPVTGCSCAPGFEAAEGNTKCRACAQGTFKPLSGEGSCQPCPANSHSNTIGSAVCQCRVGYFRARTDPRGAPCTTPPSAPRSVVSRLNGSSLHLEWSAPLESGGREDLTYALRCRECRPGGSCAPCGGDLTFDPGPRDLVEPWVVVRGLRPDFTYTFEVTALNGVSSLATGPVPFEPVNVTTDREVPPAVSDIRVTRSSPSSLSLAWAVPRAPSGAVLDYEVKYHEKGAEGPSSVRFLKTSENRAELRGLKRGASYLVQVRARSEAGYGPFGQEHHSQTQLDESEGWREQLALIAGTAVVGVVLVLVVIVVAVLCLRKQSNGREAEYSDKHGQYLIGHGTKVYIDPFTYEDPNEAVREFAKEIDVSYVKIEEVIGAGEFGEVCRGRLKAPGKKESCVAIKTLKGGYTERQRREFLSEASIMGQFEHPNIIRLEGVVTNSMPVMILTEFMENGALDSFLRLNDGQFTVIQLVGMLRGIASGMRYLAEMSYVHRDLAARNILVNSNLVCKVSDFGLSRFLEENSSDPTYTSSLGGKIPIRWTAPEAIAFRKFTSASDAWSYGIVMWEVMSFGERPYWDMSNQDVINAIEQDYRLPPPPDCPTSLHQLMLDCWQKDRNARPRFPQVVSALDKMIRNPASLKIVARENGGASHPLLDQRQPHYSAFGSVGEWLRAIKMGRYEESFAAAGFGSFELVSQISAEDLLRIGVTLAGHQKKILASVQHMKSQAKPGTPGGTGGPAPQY

[6] = molecular target: T3, Serine/threonine-protein kinase BRSK2 (Homo sapiens) (UniProt Q8IWQ3); conditions: Compound concentration 1.0 uM
T3 sequence (whole entry): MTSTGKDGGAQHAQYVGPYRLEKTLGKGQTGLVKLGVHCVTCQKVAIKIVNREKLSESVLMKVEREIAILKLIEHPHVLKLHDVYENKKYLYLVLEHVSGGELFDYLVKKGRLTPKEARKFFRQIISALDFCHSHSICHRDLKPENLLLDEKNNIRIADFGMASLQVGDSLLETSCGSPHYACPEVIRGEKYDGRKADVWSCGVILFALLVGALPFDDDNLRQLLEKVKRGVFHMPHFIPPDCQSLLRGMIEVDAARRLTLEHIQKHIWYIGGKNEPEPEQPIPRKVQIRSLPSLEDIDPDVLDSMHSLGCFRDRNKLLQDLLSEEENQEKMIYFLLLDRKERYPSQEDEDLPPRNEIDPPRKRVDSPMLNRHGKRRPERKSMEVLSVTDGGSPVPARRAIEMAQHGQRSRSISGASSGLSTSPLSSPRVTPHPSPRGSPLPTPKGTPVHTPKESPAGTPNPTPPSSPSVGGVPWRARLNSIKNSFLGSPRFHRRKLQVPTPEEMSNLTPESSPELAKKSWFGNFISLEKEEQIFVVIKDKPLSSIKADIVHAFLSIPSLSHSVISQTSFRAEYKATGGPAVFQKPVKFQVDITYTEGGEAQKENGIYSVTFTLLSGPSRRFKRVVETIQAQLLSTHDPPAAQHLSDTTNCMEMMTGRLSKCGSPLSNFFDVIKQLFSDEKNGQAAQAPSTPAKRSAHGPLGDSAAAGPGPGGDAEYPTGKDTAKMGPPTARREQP

[7] = molecular target: Serine/threonine-protein kinase 26 (Homo sapiens) (UniProt Q9P289); conditions: Compound concentration 1.0 uM
[8] = molecular target: Serine/threonine-protein kinase PLK3 (Homo sapiens) (UniProt Q9H4B4); conditions: Compound concentration 1.0 uM
[9] = molecular target: Serine/threonine-protein kinase WNK3 (Homo sapiens) (UniProt Q9BYP7); conditions: Compound concentration 1.0 uM
[10] = molecular target: Serine/threonine-protein kinase 25 (Homo sapiens) (UniProt O00506); conditions: Compound concentration 1.0 uM
[11] = molecular target: PI3-kinase p110-alpha/p85-alpha (Homo sapiens) (UniProt P27986+P42336); conditions: Compound concentration 1.0 uM

Sequence of Serine/threonine-protein kinase 25 (Homo sapiens) (O00506 whole entry, looked up): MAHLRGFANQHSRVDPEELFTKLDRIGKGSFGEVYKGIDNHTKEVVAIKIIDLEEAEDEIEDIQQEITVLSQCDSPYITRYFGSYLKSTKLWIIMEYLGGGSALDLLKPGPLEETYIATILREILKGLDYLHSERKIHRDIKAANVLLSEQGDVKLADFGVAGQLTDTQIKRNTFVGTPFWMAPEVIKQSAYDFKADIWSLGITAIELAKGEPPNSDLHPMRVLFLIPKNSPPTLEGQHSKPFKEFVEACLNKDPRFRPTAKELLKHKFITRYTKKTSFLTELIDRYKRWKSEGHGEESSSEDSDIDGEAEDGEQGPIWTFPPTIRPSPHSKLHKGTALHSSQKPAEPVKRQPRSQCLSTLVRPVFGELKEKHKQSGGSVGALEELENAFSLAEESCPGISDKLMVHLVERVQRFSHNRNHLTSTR
Sequence of Serine/threonine-protein kinase 26 (Homo sapiens) (Q9P289 2-416 limits assumed): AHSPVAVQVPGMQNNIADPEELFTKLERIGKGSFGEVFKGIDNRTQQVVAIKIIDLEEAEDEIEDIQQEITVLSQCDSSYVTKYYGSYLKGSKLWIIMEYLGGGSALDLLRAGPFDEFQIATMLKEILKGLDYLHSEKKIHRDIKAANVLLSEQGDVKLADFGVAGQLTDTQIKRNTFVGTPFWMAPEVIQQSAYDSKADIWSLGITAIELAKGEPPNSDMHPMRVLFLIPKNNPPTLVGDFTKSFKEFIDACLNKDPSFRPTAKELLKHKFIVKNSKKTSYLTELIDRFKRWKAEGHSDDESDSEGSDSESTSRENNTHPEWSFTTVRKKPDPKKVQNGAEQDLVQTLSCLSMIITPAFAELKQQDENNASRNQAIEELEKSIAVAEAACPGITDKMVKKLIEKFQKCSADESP
Sequence of Death-associated protein kinase 2 (Homo sapiens) (Q9UIK4 whole entry, looked up): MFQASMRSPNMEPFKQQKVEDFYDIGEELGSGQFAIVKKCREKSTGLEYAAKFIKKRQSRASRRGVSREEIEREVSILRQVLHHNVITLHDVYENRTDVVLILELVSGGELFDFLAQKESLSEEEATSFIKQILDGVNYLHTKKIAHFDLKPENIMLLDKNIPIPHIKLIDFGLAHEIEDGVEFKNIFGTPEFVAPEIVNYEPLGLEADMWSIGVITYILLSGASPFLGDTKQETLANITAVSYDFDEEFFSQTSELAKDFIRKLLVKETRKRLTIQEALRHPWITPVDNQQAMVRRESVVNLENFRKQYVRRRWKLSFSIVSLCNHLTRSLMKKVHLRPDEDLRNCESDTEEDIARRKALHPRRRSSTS
Sequence of D(2) dopamine receptor (Homo sapiens) (P14416 whole entry): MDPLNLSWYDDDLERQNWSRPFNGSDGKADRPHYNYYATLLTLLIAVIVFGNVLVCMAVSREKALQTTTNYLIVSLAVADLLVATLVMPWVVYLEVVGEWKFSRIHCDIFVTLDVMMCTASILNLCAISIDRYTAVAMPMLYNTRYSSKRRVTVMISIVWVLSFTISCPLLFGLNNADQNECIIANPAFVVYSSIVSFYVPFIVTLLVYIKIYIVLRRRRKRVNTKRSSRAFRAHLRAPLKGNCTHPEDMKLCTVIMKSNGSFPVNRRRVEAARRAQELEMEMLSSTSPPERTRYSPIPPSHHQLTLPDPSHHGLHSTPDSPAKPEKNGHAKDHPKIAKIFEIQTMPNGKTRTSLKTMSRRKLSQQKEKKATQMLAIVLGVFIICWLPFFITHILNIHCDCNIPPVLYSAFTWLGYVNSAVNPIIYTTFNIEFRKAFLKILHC
Sequence of Serine/threonine-protein kinase WNK3 (Homo sapiens) (Q9BYP7 whole entry): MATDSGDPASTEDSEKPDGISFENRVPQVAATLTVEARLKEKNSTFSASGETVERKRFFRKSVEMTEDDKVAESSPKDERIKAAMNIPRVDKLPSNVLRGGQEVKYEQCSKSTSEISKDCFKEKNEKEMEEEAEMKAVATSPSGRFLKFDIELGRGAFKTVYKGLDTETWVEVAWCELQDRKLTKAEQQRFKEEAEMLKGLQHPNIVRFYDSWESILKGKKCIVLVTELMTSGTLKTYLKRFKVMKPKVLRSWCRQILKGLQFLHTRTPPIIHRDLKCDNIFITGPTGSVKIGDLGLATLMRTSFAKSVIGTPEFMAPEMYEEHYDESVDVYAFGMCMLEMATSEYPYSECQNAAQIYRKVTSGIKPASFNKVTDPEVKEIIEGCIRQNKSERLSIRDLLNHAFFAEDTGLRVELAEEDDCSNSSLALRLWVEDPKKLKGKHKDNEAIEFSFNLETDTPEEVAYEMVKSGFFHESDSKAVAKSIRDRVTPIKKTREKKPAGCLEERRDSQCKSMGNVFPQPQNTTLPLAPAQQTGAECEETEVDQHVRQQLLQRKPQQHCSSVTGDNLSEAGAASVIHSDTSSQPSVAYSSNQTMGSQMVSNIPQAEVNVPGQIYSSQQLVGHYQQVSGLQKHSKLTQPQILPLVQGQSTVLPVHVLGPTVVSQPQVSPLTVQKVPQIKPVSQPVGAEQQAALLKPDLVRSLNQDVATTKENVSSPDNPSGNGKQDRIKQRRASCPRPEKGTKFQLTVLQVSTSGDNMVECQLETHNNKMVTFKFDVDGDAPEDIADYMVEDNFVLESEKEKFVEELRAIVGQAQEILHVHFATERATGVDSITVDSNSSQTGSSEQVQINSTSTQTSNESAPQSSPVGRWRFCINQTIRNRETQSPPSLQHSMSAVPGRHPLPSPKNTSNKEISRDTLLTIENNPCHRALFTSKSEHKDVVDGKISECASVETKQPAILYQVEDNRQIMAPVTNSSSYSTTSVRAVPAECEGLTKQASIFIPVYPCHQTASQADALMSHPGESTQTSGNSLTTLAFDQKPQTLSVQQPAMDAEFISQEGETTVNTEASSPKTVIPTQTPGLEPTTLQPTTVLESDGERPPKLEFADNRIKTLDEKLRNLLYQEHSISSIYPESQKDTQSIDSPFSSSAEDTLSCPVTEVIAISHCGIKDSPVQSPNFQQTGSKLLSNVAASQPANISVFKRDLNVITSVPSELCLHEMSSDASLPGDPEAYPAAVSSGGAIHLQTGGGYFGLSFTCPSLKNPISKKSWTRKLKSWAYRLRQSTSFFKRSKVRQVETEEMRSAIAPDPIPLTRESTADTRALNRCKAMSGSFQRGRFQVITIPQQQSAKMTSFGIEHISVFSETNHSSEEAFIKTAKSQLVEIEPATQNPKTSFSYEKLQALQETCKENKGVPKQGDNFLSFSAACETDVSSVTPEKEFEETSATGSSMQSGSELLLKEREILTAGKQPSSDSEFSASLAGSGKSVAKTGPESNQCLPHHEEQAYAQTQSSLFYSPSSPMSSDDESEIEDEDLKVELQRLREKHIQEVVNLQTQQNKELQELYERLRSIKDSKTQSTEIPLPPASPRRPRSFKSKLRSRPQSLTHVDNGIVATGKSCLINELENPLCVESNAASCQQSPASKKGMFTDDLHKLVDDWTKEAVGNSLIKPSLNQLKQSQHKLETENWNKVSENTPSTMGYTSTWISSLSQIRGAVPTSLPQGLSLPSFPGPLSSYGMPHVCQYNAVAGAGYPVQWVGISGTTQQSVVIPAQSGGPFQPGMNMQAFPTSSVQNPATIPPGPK
Sequence of Serine/threonine-protein kinase PLK3 (Homo sapiens) (Q9H4B4 whole entry, looked up): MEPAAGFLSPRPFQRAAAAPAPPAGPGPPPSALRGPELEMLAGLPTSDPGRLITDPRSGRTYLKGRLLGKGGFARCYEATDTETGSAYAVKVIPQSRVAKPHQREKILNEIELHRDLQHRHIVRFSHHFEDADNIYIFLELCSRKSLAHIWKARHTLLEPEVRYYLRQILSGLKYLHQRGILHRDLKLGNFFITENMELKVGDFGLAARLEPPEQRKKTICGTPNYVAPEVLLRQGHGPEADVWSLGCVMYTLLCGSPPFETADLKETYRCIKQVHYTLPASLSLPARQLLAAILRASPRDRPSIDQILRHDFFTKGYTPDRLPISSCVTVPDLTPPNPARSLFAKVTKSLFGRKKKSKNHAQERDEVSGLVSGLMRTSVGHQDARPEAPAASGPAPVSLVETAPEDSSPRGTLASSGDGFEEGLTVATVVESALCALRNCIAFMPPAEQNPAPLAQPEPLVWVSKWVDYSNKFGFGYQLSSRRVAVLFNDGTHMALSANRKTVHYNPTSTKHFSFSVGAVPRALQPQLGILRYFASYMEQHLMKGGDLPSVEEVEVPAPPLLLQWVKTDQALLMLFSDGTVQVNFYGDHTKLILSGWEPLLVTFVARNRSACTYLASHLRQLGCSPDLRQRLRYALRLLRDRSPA

Cc1nc(C2CCN(C(=O)c3ccc(OC(F)(F)F)cc3N)CC2)c2ncc(N3CCN(C)CC3)cc2n1 [BAY-693]
inactive: inhibition [1] 2.97% | inhibition [2] -4.32%

CN1CCN(c2cnc3c(C4CCN(C(=O)c5ccc(OC(F)(F)F)cc5N)CC4)ncnc3c2)CC1 [BAY-885]
inactive: % residual kinase activity [3] 99% | % residual kinase activity [4] 108% | % residual kinase activity [5] 103% | % residual kinase activity [6] 102% | % residual kinase activity [7] 103% | % residual kinase activity [8] 107% | % residual kinase activity [9] 107% | % residual kinase activity [10] 87% | % residual kinase activity [11] 98%
